Patent publication US7700618B2 (Pfizer Inc, priority 2006, dated 2010)

Biological target: T1, Human CB2 (Homo sapiens, UniProt P34972)
T1 construct: expressed in transfected cells; host or cells: CHO-K1 (Chinese hamster ovary K1) cells
Test: Agonist-induced cAMP change in human CB2 transfected CHO-K1 cells
Format: cell-based
Conditions: forskolin 5 μM stimulated cAMP; for EC50: 30 min 37° C.
Protocol: Agonist-induced cAMP Change in Human CB2 Transfected CHO-K1 Cells
Human CB2 transfected Chinese hamster ovary-K1 (CHO-K1) cells were established and grown to 60-80% confluence. The medium was changed to F-12 medium containing 10% dialysed FBS, and the cells were incubated overnight. On the day of the assay, the cells were harvested with PBS/1 mM EDTA, centrifuged and washed with PBS. Cell pellets were resuspended in the incubation buffer (F-12 medium, 20 mM HEPES, 1 mM IBMX, 0.1 mM Ro-20-1724) at the concentration of 1×10^5 cells/ml and pre-incubated for 15 min at room temperature. The agonist samples were diluted from 10 mM stock solution in DMSO and dispensed into 96-well half-area plates (12.5 μl/well) with assay buffer (F-12, 20 mM HEPES). The reaction was initiated by adding the cells (25 μl/well) into the well containing forskolin (12.5 μL/well, final 5 μM) and diluted compounds. After incubation for 30 minutes at 37° C., cAMP-XL665 conjugated, and then the anti-cAMP-cryptase conjugate was added to the lysate (25 μl/well each). After further incubation for 60 minutes at room temperature, measurements were made on the Wallac 1420 ARVOsx multilabel counter (Excitation 320 nm, Emission 665 nm/620 nm, delay time 50 μs, window time 400 μs). Data analysis was made based on the ratio of fluorescence intensity of each well at 620 nm and 665 nm. The equation “sigmoldal dose-response” was used for the determination of EC50 and Emax values.

T1 sequence (P34972 whole entry): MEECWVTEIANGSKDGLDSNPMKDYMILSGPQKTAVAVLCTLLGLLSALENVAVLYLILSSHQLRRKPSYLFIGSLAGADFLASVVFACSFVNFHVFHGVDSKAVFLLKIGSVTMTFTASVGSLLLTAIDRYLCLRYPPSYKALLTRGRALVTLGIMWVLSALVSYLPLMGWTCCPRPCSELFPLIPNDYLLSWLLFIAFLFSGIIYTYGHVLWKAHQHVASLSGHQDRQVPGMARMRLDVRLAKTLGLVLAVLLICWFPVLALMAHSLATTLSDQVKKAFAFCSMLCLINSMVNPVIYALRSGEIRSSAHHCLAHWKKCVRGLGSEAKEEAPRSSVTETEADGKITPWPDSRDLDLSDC

| SMILES | Emax | EC50 |
| --- | --- | --- |
| CC(=O)NCC(C)(C)S(=O)(=O)c1ccc2c(c1)nc(CC(C)(C)C)n2CC1CC1 [Example 13, N-(2-{[1-(Cyclopropylmethyl)-2-(2,2-dimethylpropyl)-1H-benzimidazol-5-yl]sulfonyl}-2-methylpropyl)acetamide] | 113% | 5.24 nM |
| CC(C)(C)Cc1nc2cc(S(=O)(=O)C(C)(C)C(N)=O)cnc2n1CC1CC1 [Example 5, 2-{[3-(Cyclopropylmethyl)-2-(2,2-dimethylpropyl)-3H-imidazo[4,5-b]pyridin-6-yl]sulfonyl}-2-methylpropanamide] | 118% | 5.53 nM |
| CC(C)(C)c1nc2cc(S(=O)(=O)C(C)(C)C(N)=O)ccc2n1CC1(O)CCCC1 [Example 12, 2-({2-tert-Butyl-1-[(1-hydroxycyclopentyl)methyl]-1H-benzimidazol-5-yl}sulfonyl)-2-methylpropanamide] | 133% | 5.34 nM |
| CC(C)(C)Cc1nc2cc(S(=O)(=O)CC(C)(C)NC(N)=O)ccc2n1CC1CC1 [Example 18, N-(2-{[1-(Cyclopropylmethyl)-2-(2,2-dimethylpropyl)-1H-benzimidazol-5-yl]sulfonyl}-1,1-dimethylethyl)urea] | 109% | 26.4 nM |
| CC(=O)NC(C)(C)CS(=O)(=O)c1ccc2c(c1)nc(CC(C)(C)C)n2CC1CC1 [Example 19, N-(2-{[1-(Cyclopropylmethyl)-2-(2,2-dimethylpropyl)-1H-benzimidazol-5-yl]sulfonyl}-1,1-dimethylethyl)acetamide] | 110% | 3.77 nM |
| CC(C)(C)Cc1nc2cc(S(=O)(=O)C(C)(C)CNS(C)(=O)=O)ccc2n1CC1CC1 [Example 14, N-(2-{[1-(Cyclopropylmethyl)-2-(2,2-dimethylpropyl)-1H-benzimidazol-5-yl]sulfonyl}-2-methylpropyl)methanesulfonamide] | 120% | 1.59 nM |
| CC(C)(C)Cc1nc2cc(S(=O)(=O)C(C)(C)C(=O)N3CCOCC3)ccc2n1CC1CC1 [Example 6, 1-(Cyclopropylmethyl)-5-[(1,1-dimethyl-2-morpholin-4-yl-2-oxoethyl)sulfonyl]-2-(2,2-dimethylpropyl)-1H-benzimidazole] | 136% | 2.96 nM |
| CC(C)(C)Cc1nc2cc(S(=O)(=O)C3(C(N)=O)CCC3)ccc2n1CC1CC1 [Example 3, 1-{[1-(Cyclopropylmethyl)-2-(2,2-dimethylpropyl)-1H-benzimidazol-5-yl]sulfonyl}cyclobutanecarboxamide] | 121% | 0.45 nM |
| CC(C)(C)Cc1nc2cc(S(=O)(=O)C(C)(C)C(=O)NCCN)ccc2n1CC1CC1 [Example 11] | 117% | 13.7 nM |
| CN(C)C(=O)NCC(C)(C)S(=O)(=O)c1ccc2c(c1)nc(CC(C)(C)C)n2CC1CC1 [Example 15, N′-(2-{[1-(Cyclopropylmethyl)-2-(2,2-dimethylpropyl)-1H-benzimidazol-5-yl]sulfonyl}-2-methylpropyl)-N,N-dimethylurea] | 113% | 8.31 nM |
| CN(C)C(=O)C(C)(C)S(=O)(=O)c1ccc2c(c1)nc(CC(C)(C)C)n2CC1CC1 [Example 7, 2-{[1-(Cyclopropylmethyl)-2-(2,2-dimethylpropyl)-1H-benzimidazol-5-yl]sulfonyl}-N,N,2-trimethylpropanamide] | 141% | 1.34 nM |
| CC(C)(C)Cc1nc2cc(S(=O)(=O)C(C)(C)C(=O)NCC(N)=O)ccc2n1CC1CC1 [Example 10] | 109% | 3.64 nM |
| CNC(=O)NCC(C)(C)S(=O)(=O)c1ccc2c(c1)nc(CC(C)(C)C)n2CC1CC1 [Example 16, N-(2-{[1-(Cyclopropylmethyl)-2-(2,2-dimethylpropyl)-1H-benzimidazol-5-yl]sulfonyl}-2-methylpropyl)-N′-methylurea] | 109% | 1.22 nM |
| CC(C)(C)Cc1nc2cc(S(=O)(=O)C3(C(N)=O)CCOCC3)ccc2n1CC1CC1 [Example 4, 4-{[1-(Cyclopropylmethyl)-2-(2,2-dimethylpropyl)-1H-benzimidazol-5-yl]sulfonyl}tetrahydro-2H-pyran-4-carboxamide] | 114% | 1.31 nM |
| CC(C)(C)Cc1nc2cc(S(=O)(=O)C(C)(C)C(=O)NCCO)ccc2n1CC1CC1 [Example 9, 2-{[1-(Cyclopropylmethyl)-2-(2,2-dimethylpropyl)-1H-benzimidazol-5-yl]sulfonyl}-N-(2-hydroxyethyl)-2-methylpropanamide] | 127% | 1.13 nM |
| CC(C)(C)Cc1nc2cc(S(=O)(=O)C3(C(N)=O)CC3)ccc2n1CC1CC1 [Example 2, 1-{[1-(Cyclopropylmethyl)-2-(2,2-dimethylpropyl)-1H-benzimidazol-5-yl]sulfonyl}cyclopropanecarboxamide] | 160% | 0.15 nM |
| CNC(=O)C(C)(C)S(=O)(=O)c1ccc2c(c1)nc(CC(C)(C)C)n2CC1CC1 [Example 8, 2-{[1-(Cyclopropylmethyl)-2-(2,2-dimethylpropyl)-1H-benzimidazol-5-yl]sulfonyl}-N,2-dimethylpropanamide] | 129% | 6.68 nM |
| CC(C)(C)Cc1nc2cc(S(=O)(=O)C(C)(C)CNC(N)=O)ccc2n1CC1CC1 [Example 17, N-(2-{[1-(Cyclopropylmethyl)-2-(2,2-dimethylpropyl)-1H-benzimidazol-5-yl]sulfonyl}-2-methylpropyl)urea] | 120% | 1.98 nM |
| CC(C)(C)Cc1nc2cc(S(=O)(=O)C(C)(C)C(N)=O)ccc2n1CC1CC1 [Example 1, 2-{[1-(Cyclopropylmethyl)-2-(2,2-dimethylpropyl)-1H-benzimidazol-5-yl]sulfonyl}-2-methylpropanamide] | 118% | 0.91 nM |
